This series is described as follows: photoluminescence quantum yield (fraction); solvent given as SMILES.
[1] abbreviates: in O=P(c1ccccc1)(c1ccccc1)c1ccccc1Oc1ccccc1P(=O)(c1ccccc1)c1ccccc1.

`F[B-]1(F)OC(c2ccccc2)=Nc2sc(-c3ccccc3)n[n+]21` had a photoluminescence quantum yield (in C1CCOC1) of 0.02; a photoluminescence quantum yield (in CCO) of 0.01; a photoluminescence quantum yield (in CCOC(C)=O) of 0.01; a photoluminescence quantum yield (in CN(C)C=O) of 0.01; a photoluminescence quantum yield (in Cc1ccccc1) of 0.06; a photoluminescence quantum yield (in ClC(Cl)Cl) of 0.05. The same compound gave a photoluminescence quantum yield (in ClCCl) of 0.03.

With `Oc1c(-c2ccco2)cccc1-c1nc2ccccc2s1`, the photoluminescence quantum yield reads like this: (in CCO) 0.0057; (in ClCCl) 0.0137; (in O) 0.01.

As for `C(/C=C/C1=[NH+]c2cccc3cccc1c23)=c1/[nH]c2cccc3cccc1c32`, for the setting “in CO”, the photoluminescence quantum yield came out at 0.0013.

In the case of `COc1ccc(-n2nc(C(=O)c3ccc(Cl)cc3)c(N3CCCC3)n2)cc1`, the photoluminescence quantum yield (in CC#N) is 0.004.

Under “in ClC(Cl)Cl”, `CCCCN1c2ccccc2Sc2cc(/C=C\c3cc(=O)oc4ccc(C)cc34)ccc21` had a photoluminescence quantum yield of 0.7.

`O=C1c2ccc3c4c(NC5CCCCC5)cc5c6c(ccc(c7c(NC8CCCCC8)cc(c2c37)C(=O)N1C1CCCCC1)c64)C(=O)N(C1CCCCC1)C5=O` returned a photoluminescence quantum yield (in ClC(Cl)Cl) of 0.008.

In turn, `c1ccc(-c2cc(-c3ccccc3)cc(-c3ccccc3)c2)cc1` displayed a photoluminescence quantum yield (in C1COCCO1) of 0.1.

Take `Cc1ccc(-n2c(-c3ccc(N(c4ccc(-c5ccc(N(c6ccc(-c7nc8c9ccccc9c9ccccc9c8n7-c7ccc(C)cc7)cc6)c6ccc(-c7nc8c9ccccc9c9ccccc9c8n7-c7ccc(C)cc7)cc6)cc5)cc4)c4ccc(-c5nc6c7ccccc7c7ccccc7c6n5-c5ccc(C)cc5)cc4)cc3)nc3c4ccccc4c4ccccc4c32)cc1`: the photoluminescence quantum yield (in ClCCl) was 0.282.

Take `c1ccc(-c2cc(-c3ccc(N4c5ccccc5C5(c6ccccc64)c4ccccc4N(c4ccc(-c6cc(-c7ccccc7)nc(-c7ccccc7)n6)cc4)c4ccccc45)cc3)nc(-c3ccccc3)n2)cc1`: under setting [1], the photoluminescence quantum yield came out at 0.73.

For `Cc1ccc(C2=C3C=C(I)C(I)=[N+]3[B-](F)(F)n3c2cc(I)c3I)cc1`, the photoluminescence quantum yield runs as follows: (in C1CCCCC1) 0.099; (in CC#N) 0.058; (in CCO) 0.067; (in CCOC(C)=O) 0.073; (in CO) 0.061; (in OCC(F)(F)F) 0.059.

In the case of `CCCCCCN(CCCCCC)c1ccc(C#Cc2ccc(C(F)(F)F)cc2)cc1`, the photoluminescence quantum yield (in CO) turned out to be 0.0074 and the photoluminescence quantum yield (in ClCCl) turned out to be 0.24.

In turn, `O=S1(=O)C(c2cccs2)=C(c2cccs2)c2ccccc21` had a photoluminescence quantum yield (in C1CCOC1) of 0.006.

Take `Cc1ccc2[nH]c(-c3ccc(-c4ccc(-c5ccc(-c6nc7cc(C)ccc7[nH]6)cc5)cc4)cc3)nc2c1`: where the note is “in CN(C)C=O”, the photoluminescence quantum yield was found to be 0.94.

`CCCCCCCCOc1ccc2c3cccc4c(OCCCCCCCC)ccc(c5cccc1c52)c43`: the photoluminescence quantum yield is 0.94 (in C1CCOC1); 0.9 (in Cc1ccccc1); 0.08 (in ClC(Cl)(Cl)Cl); 0.69 (in ClC(Cl)Cl); 0.81 (in ClCCl); 0.9 (in c1ccncc1).

`c1ccc2c(c1)OP1(=NP3(=NP(Oc4ccc5ccc6cccc7ccc4c5c67)(Oc4ccc5ccc6cccc7ccc4c5c67)=N1)Oc1ccccc1-c1ccccc1O3)Oc1ccccc1-2` gave a photoluminescence quantum yield (in ClCCl) of 0.82.

Where the note is “in ClCCl”, `c1ccc2c(c1)ccc1c3ccccc3ccc21` displayed a photoluminescence quantum yield of 0.12.

Consider `N#Cc1c(N2CCCC2)cc(-c2ccccc2)c2c1-c1cccc3cccc-2c13`, for which the photoluminescence quantum yield (in O) was 0.25.

Turning to `C(=C\c1ccc(-c2ccc(/C=C/c3ccc(-n4c5ccccc5c5ccccc54)cc3)s2)s1)/c1ccc(-n2c3ccccc3c3ccccc32)cc1`, the photoluminescence quantum yield turned out to be 0.1 (in C1CCOC1); 0.09 (in CC#N); 0.09 (in CC(C)=O); 0.11 (in CN(C)C=O); 0.11 (in Cc1ccccc1).

`Cc1cc(C2=C(c3cc(C)sc3C)P(=O)(c3ccccc3)c3ccccc32)c(C)s1` (stereo not drawn): the photoluminescence quantum yield (in C1CCOC1) worked out at 0.03.

`COc1cccc(-[c+]2c3ccccc3oc3ccccc32)c1` gave a photoluminescence quantum yield (in CC#N) of 0.00066.

On to `Cc1cc2ccccc2c2c1c1ccccc1n2-c1ncccn1`, for which the photoluminescence quantum yield (in ClCCl) came to 0.

Compound `CN1CCCc2cc(C3=Cc4cccc[n+]4[B-](F)(F)O3)ccc21` displayed a photoluminescence quantum yield (in ClC(Cl)Cl) of 0.55.

`COC(=O)c1nc2cnc(N)nc2n1Cc1ccccc1` came in with a photoluminescence quantum yield (in C1COCCO1) of 0.64; a photoluminescence quantum yield (in CC#N) of 0.55; a photoluminescence quantum yield (in CO) of 0.87; a photoluminescence quantum yield (in ClCCl) of 0.42; a photoluminescence quantum yield (in O) of 0.95.

For the compound `CCN(CC)c1ccc2cc(-c3ccc(-c4ccc(-c5cc6ccc(N(CC)CC)cc6oc5=O)cc4)cc3)c(=O)oc2c1`, the photoluminescence quantum yield (in ClCCl) turned out to be 0.75.

Where the note is “in Cc1ccccc1”, `CCCCCCc1ccc(/C=C/c2ccc(CCCCCC)s2)s1` had a photoluminescence quantum yield of 0.051.

For `CC1(C)C(=O)C=Cc2ccc(N)cc21`, the photoluminescence quantum yield (in O) amounted to 0.14.

Turning to `CC1=C(c2cccs2)C(C)=[N+]2C1=C(c1ccc(OS(=O)(=O)c3ccc([N+](=O)[O-])cc3[N+](=O)[O-])cc1)c1c(C)c(-c3cccs3)c(C)n1[B-]2(F)F`, the photoluminescence quantum yield (in Cc1ccccc1) stood at 0.059.

Turning to `C(#Cc1ccc(C#Cc2ccc(C#Cc3ccccc3)cc2)cc1)c1ccccc1`, the photoluminescence quantum yield (in ClC(Cl)Cl) was 0.61.

`c1ccc(-c2ccc(-c3ccc4c(c3)CCCO4)cc2)cc1` had a photoluminescence quantum yield (in C1CCCCC1) of 0.62.

On to `COc1ccc(C2=[N+]3C(=Nc4c(-c5ccccc5)c(Br)c(-c5ccc(OC)cc5)n4[B-]3(F)F)C(c3ccccc3)=C2Br)cc1`, for which the photoluminescence quantum yield turned out to be 0.1 (in ClC(Cl)Cl) and 0.1 (in ClCCl).

Regarding `CCN(CC)c1ccc2cc(-c3nc4cc(C(=O)Nc5ccccc5)ccc4o3)c(=O)oc2c1`, the photoluminescence quantum yield (in ClCCl) worked out at 0.35.

Regarding `COc1ccc(/C=C2\OC(=O)c3cc(N)ccc32)cc1`, the photoluminescence quantum yield turned out to be 0.38 (in CC#N); 0.21 (in CC(C)=O); 0.44 (in CC(C)CO); 0.4 (in CC(C)O); 0.46 (in CCCO); 0.34 (in CCO). Besides, the photoluminescence quantum yield was 0.2 (in CCOC(C)=O), 0.11 (in CCOCC) and 0.29 (in CO).

In the case of `COc1nc(Nc2ccc3c4cccc5cccc(c6cccc2c63)c54)nc(OC)n1`, the photoluminescence quantum yield reads like this: (in C1COCCO1) 0.51; (in CC#N) 0.43; (in CCCCOCCCC) 0.46; (in CCOC(C)=O) 0.47.

Consider `CC(C)(C)c1ccc2c(c1)c1cc(C(C)(C)C)ccc1n2-c1cc(-n2c3ccc(C(C)(C)C)cc3c3cc(C(C)(C)C)ccc32)c(-n2c3ccc(C(C)(C)C)cc3c3cc(C(C)(C)C)ccc32)c(C#N)c1-n1c2ccc(C(C)(C)C)cc2c2cc(C(C)(C)C)ccc21`, for which the photoluminescence quantum yield (in Cc1ccccc1) amounted to 0.68.

`CC1=C(C)c2cccc3c2c(cc2nc4ccccc4nc23)O1` showed a photoluminescence quantum yield (in ClCCl) of 0.41.

Consider `CCN(CC)c1ccc2c(c1)oc(=O)c1c(C)nc3c(c(-c4ccccc4)nn3C)c12`, for which the photoluminescence quantum yield was 0.699 (in C1CCCCC1); 0.627 (in CCOC(C)=O); 0.483 (in CN(C)C=O); 0.43 (in CO); 0.673 (in ClCCl).

On to `CCCCc1ccc2ccc3c(CCCC)cc(CCCC)c4ccc1c2c34`, for which the photoluminescence quantum yield amounted to 0.49 (in CCCCCC), 0.6 (in CO) and 0.43 (in ClCCl).

Take `N#Cc1cccc(N)c1`: the photoluminescence quantum yield was found to be 0.062 (in C1CCCCC1); 0.32 (in CC#N); 0.16 (in CCCCCC); 0.19 (in CCO); 0.0019 (in O); 0.0054 (in OCC(F)(F)F).

For the compound `O=C1c2ccccc2C2=Cc3cccc[n+]3[B-](F)(F)N12`, the photoluminescence quantum yield (in ClCCl) came out at 0.47.

In the case of `COc1ccc(C(=O)NC(C)(C)C)c2c1ccc1c3ccccc3c3ccccc3c12`, under “in ClCCl”, the photoluminescence quantum yield turned out to be 0.1.

For the compound `CCCCCCc1ccc2c3c(ccc2c1)O[B-](c1ccccc1)(c1ccccc1)[N+](c1ccc([N+]2=Cc4c(ccc5cc(CCCCCC)ccc45)O[B-]2(c2ccccc2)c2ccccc2)cc1)=C3`, the photoluminescence quantum yield by setting is: (in C1CCOC1) 0.32; (in CC#N) 0.27; (in Cc1ccccc1) 0.35; (in ClCCl) 0.47.

For `C(#Cc1cccc(C#Cc2ccc(-n3c4ccccc4c4ccccc43)cc2)c1)c1ccc(-n2c3ccccc3c3ccccc32)cc1`, the photoluminescence quantum yield (in ClCCl) turned out to be 0.8.

`CC(C)(C)C1CCC(=CS/C=C/c2ccc(-c3ccc(/C=C/SC=C4CCC(C(C)(C)C)CC4)cc3)cc2)CC1` (stereo not drawn) had a photoluminescence quantum yield (in ClCCl) of 0.233.

`CCCCCc1ccc(C#Cc2cc(C#Cc3ccc(CCCCC)cc3)c3ccc4c(C(=O)c5ccccc5)cc(C#Cc5ccc(CCCCC)cc5)c5ccc2c3c54)cc1` gave a photoluminescence quantum yield (in ClCCl) of 0.43.

Consider `FC(F)(F)c1ccc(-c2ncc3ccccn23)cc1`, for which the photoluminescence quantum yield (in ClC(Cl)Cl) stood at 0.04.

`COc1ccc(-c2pc3ccccc3s2)cc1` (stereo not drawn) had a photoluminescence quantum yield (in CC#N) of 0.054.

Compound `O=[N+]([O-])c1ccc(/C2=C3N=C(C(c4ccccc4)=C/3c3ccccc3)/C(c3ccc([N+](=O)[O-])cc3)=c3\[nH]/c(c(-c4ccccc4)c3-c3ccccc3)=C(/c3ccc([N+](=O)[O-])cc3)C3=N/C(=C(/c4ccc([N+](=O)[O-])cc4)c4[nH]c2c(-c2ccccc2)c4-c2ccccc2)C(c2ccccc2)=C3c2ccccc2)cc1` gave a photoluminescence quantum yield (in ClCCl) of 0.003.

In the case of `Cc1ccc(-n2cccc2)cc1`, the photoluminescence quantum yield worked out at 0.4 (in CC#N) and 0.28 (in CCCCCC).

Take `c1ccc(-c2nc(-c3ccccc3)nc(-c3ccc(-n4c5ccccc5c5c6c(ccc54)-c4ccccc4C6(c4ccccc4)c4ccccc4)cc3)n2)cc1`: the photoluminescence quantum yield under setting [1] was determined as 0.979.

The values are drawn from the Deep4Chem optical property database.
